ChEMBL document CHEMBL1152546, “N-[2-chloro-9H-purin-6-yl]-N-cyclopropylglycylamino acids and derivatives: synthesis, evaluation as a class of novel analgesics, and 3D QSAR analysis” (2009)

What was measured:
Format in all cases: functional
[1] = test system: Mus musculus; test: Analgesic activity in ICR mouse assessed as pain threshold variation at 25 umol/kg, po administered as single dose measured after 90 mins by tail flick test relative to control
[2] = test system: Mus musculus; test: Analgesic activity in ICR mouse assessed as pain threshold variation at 25 umol/kg, po administered as single dose measured after 60 mins by tail flick test relative to control
[3] = test system: Mus musculus; test: Analgesic activity in ICR mouse assessed as pain threshold variation at 25 umol/kg, po administered as single dose measured after 180 mins by tail flick test relative to control
[4] = test system: Mus musculus; test: Analgesic activity in ICR mouse assessed as pain threshold variation at 25 umol/kg, po administered as single dose measured after 30 mins by tail flick test relative to control
[5] = test system: Mus musculus; test: Analgesic activity in ICR mouse assessed as pain threshold variation at 25 umol/kg, po administered as single dose measured after 120 mins by tail flick test relative to control
[6] = test system: Mus musculus; test: Analgesic activity in ICR mouse assessed as pain threshold variation at 25 umol/kg, po administered as single dose measured after 150 mins by tail flick test relative to control

O=C(CN(c1nc(Cl)nc2[nH]cnc12)C1CC1)N[C@@H](CCC(=O)OCc1ccccc1)C(=O)OCc1ccccc1 gave an Activity [1] of 50%, an Activity [2] of 53.74% and an Activity [3] of 29.87%. The Activity [4] was 52.8%, the Activity [5] was 45.94% and the Activity [6] was 44.46%.
With O=C(CN(c1nc(Cl)nc2[nH]cnc12)C1CC1)N[C@@H](Cc1ccccc1)C(=O)OCc1ccccc1 the Activity [1] was 27.14%, the Activity [2] was 38.92% and the Activity [3] was 5.15%. For the same compound, the Activity [4] was 39.38%, the Activity [5] was 20.4% and the Activity [6] was 10.73%.
In the case of O=C(O)CC[C@H](NC(=O)CN(c1nc(Cl)nc2[nH]cnc12)C1CC1)C(=O)O, the Activity [1] was 44.7%, the Activity [2] was 33.25% and the Activity [3] was 10.05%. For the same compound, the Activity [4] was 26.81%, the Activity [5] was 30.08% and the Activity [6] was 29.46%.
Compound O=C(CN(c1nc(Cl)nc2[nH]cnc12)C1CC1)N[C@@H](Cc1ccc(O)cc1)C(=O)OCc1ccccc1 has an Activity [1] of 15.02%, an Activity [2] of 22% and an Activity [3] of 4.33%. The Activity [4] was 22.6%, the Activity [5] was 13.65% and the Activity [6] was 9.38%.
In the case of NC(=O)C[C@H](NC(=O)CN(c1nc(Cl)nc2[nH]cnc12)C1CC1)C(=O)OCc1ccccc1, the Activity [1] was 32.27%, the Activity [2] was 36.36% and the Activity [3] was 5.3%. It also gave an Activity [4] of 24.41%, an Activity [5] of 15.13% and an Activity [6] of 13.49%.
Work on O=C(CN(c1nc(Cl)nc2[nH]cnc12)C1CC1)N[C@@H](Cc1cnc[nH]1)C(=O)OCc1ccccc1 yielded an Activity [1] of 15.04%, an Activity [2] of 26.6% and an Activity [3] of 4.18%. For the same compound, the Activity [4] was 29.06%, the Activity [5] was 10.15% and the Activity [6] was 5.05%.
Work on NC(=O)C[C@H](NC(=O)CN(c1ncnc2c1ncn2C1CCCCO1)C1CC1)C(=O)OCc1ccccc1 (stereo partly specified) yielded an Activity [1] of 34.95%, an Activity [2] of 30.54% and an Activity [3] of 15.45%. The Activity [4] was 34.53%, the Activity [5] was 29.15% and the Activity [6] was 21.71%.
O=C(CN(c1nc(Cl)nc2[nH]cnc12)C1CC1)N[C@@H](Cc1ccccc1)C(=O)O was tested, and the Activity [1] was 26.55%, the Activity [2] was 32.02% and the Activity [3] was 4.19%. It also gave an Activity [4] of 29.37%, an Activity [5] of 8.84% and an Activity [6] of 6.09%.
Compound C[C@@H](O)[C@H](NC(=O)CN(c1nc(Cl)nc2[nH]cnc12)C1CC1)C(=O)OCc1ccccc1 has an Activity [1] of 29.88%, an Activity [2] of 29.7% and an Activity [3] of 6.29%. It also gave an Activity [4] of 21.86%, an Activity [5] of 30.7% and an Activity [6] of 12.76%.
Compound O=C(CN(c1nc(Cl)nc2[nH]cnc12)C1CC1)N[C@@H](CC(=O)OCc1ccccc1)C(=O)OCc1ccccc1 has an Activity [1] of 15.58%, an Activity [2] of 22.4% and an Activity [3] of 2.87%. It also gave an Activity [4] of 34.7%, an Activity [5] of 12.14% and an Activity [6] of 6.68%.
CC(C)[C@H](NC(=O)CN(c1nc(Cl)nc2[nH]cnc12)C1CC1)C(=O)O showed an Activity [1] of 30.28%, an Activity [2] of 38.79% and an Activity [3] of 3.04%. It also gave an Activity [4] of 31.15%, an Activity [5] of 17.06% and an Activity [6] of 7.86%.
